Holding throughout (format): biochemical
The target of one experiment is T1, MMP-16 (Homo sapiens, UniProt P51512).
T1 construct: purchased R&D Systems 1785-MP
The experiment is described as follows: In vitro MMP-16 inhibition test. As to conditions: human MMP-16. The source says:
(§1) The MMP-mediated amidolytic cleavage of a suitable peptide substrate leads to an increase in fluorescent light here too. The signal intensity of the fluorescent light is directly proportional to the enzyme activity. The active concentration of a test compound at which half the enzyme is inhibited (50% signal intensity of the fluorescent light) is reported as the IC50 value.
Recombinant MMP-16 (R&D Systems, 1785-MP) is enzymatically activated in accordance with the manufacturer's instructions using recombinant furin (R&D Systems, 1503-SE). 1 μl of the test compound to be analysed (as a solution in DMSO, suitable concentrations e.g. 1 nM to 30 μM) is pipetted into 24 μl of activated enzyme (final concentration e.g. 1 nM) in reaction buffer (50 mM Tris/HCl pH 7.5, 10 mM CaCl2, 150 mM NaCl, 0.05% Brij®-35) in a white 384-hole microtiter plate (MTP). The enzymatic reaction is started by adding the intramolecularly quenched Mca-Lys-Pro-Leu-Gly-Leu-Dpa(Dnp)-Ala-Arg-NH2 substrate (final concentration e.g. 5 μM; R&D Systems, ES-010), so as to result in a total test volume of 50 μl. The course of the MMP-16 reaction is measured by measuring the fluorescence intensity (excitation 320 nm, emission 410 nm) over a suitable period of time (e.g. over 120 min at a temperature of 32° C.).

A further experiment concerns the target T2, MMP-3 (Homo sapiens, UniProt P08254).
T2 construct: purchased R&D Systems 513-MP
The experiment is described as follows: In vitro MMP-3 inhibition test. As to conditions: human MMP-3.
Source text: as §1
(§2) Recombinant MMP-3 (R&D Systems, 513-MP) is chemically activated in accordance with the manufacturer's instructions using APMA. 1 μl of the test compound to be analysed (as a solution in DMSO, suitable concentrations e.g. 1 nM to 30 μM) is pipetted into 24 μl of activated enzyme (final concentration e.g. 2 nM) in reaction buffer (50 mM Tris/HCl pH 7.5, 10 mM CaCl2, 150 mM NaCl, 0.05% Brij®-35) in a white 384-hole microtiter plate (MTP). The enzymatic reaction is started by adding the intramolecularly quenched Mca-Arg-Pro-Lys-Pro-Val-Glu-Nval-Trp-Arg-Lys(Dnp)-NH2 substrate (final concentration e.g. 10 μM; R&D Systems, ES-002), so as to result in a total test volume of 50 μl. The course of the MMP-3 reaction is measured by measuring the fluorescence intensity (excitation 320 nm, emission 410 nm) over a suitable period of time (e.g. over 120 min at a temperature of 32° C.).

For a further experiment, the target named is T3, MMP-9 (Homo sapiens, UniProt P14780).
T3 construct: purchased R&D Systems 911-MP
The experiment is described as follows: In vitro MMP-9 inhibition test. As to conditions: human MMP-9.
Source text: as §1
as §2, with “Recombinant MMP-9” for “Recombinant MMP-3”, “Systems, 911-MP)” for “Systems, 513-MP)”, “e.g. 0.1” for “e.g. 2”, “quenched Mca-Pro-Leu-Gly-Leu-Dpa(Dnp)-Ala-Arg-NH2” for “quenched Mca-Arg-Pro-Lys-Pro-Val-Glu-Nval-Trp-Arg-Lys(Dnp)-NH2”, “Systems, ES-001),” for “Systems, ES-002),”, “the MMP-9” for “the MMP-3”

The target of another experiment is T4, MMP-7 (Homo sapiens, UniProt P09237).
T4 construct: purchased R&D Systems 907-MP
T4 sequence (P09237 95-267): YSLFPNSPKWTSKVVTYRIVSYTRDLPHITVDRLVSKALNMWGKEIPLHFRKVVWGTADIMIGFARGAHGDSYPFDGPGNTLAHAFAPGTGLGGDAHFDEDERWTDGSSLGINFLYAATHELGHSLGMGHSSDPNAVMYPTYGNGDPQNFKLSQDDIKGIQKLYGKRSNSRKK
The experiment is described as follows: In vitro MMP-7 inhibition test. The conditions noted are these: human MMP-7.
Source text: as §1
as §2, with “Recombinant MMP-7 (from R&D” for “Recombinant MMP-3 (R&D”, “Systems, 907-MP)” for “Systems, 513-MP)”, “e.g. 0.5” for “e.g. 2”, “quenched Mca-Pro-Leu-Gly-Leu-Dpa(Dnp)-Ala-Arg-NH2” for “quenched Mca-Arg-Pro-Lys-Pro-Val-Glu-Nval-Trp-Arg-Lys(Dnp)-NH2”, “Systems, ES-001),” for “Systems, ES-002),”, “the MMP-7” for “the MMP-3”

Another experiment concerns the target T5, MMP-13 (Homo sapiens, UniProt P45452).
T5 construct: purchased R&D Systems 511-MP
The experiment is described as follows: In vitro MMP-13 inhibition test. The conditions noted are these: human MMP-13.
Source text: as §1
as §2, with “Recombinant MMP-13” for “Recombinant MMP-3”, “Systems, 511-MP)” for “Systems, 513-MP)”, “e.g. 0.1” for “e.g. 2”, “quenched Mca-Pro-Leu-Gly-Leu-Dpa(Dnp)-Ala-Arg-NH2” for “quenched Mca-Arg-Pro-Lys-Pro-Val-Glu-Nval-Trp-Arg-Lys(Dnp)-NH2”, “Systems, ES-001),” for “Systems, ES-002),”, “the MMP-13” for “the MMP-3”

The IC50 is the concentration at which inhibition is half-maximal. A lower IC50 goes with higher potency.

T1 sequence (P51512 120-564 limits assumed): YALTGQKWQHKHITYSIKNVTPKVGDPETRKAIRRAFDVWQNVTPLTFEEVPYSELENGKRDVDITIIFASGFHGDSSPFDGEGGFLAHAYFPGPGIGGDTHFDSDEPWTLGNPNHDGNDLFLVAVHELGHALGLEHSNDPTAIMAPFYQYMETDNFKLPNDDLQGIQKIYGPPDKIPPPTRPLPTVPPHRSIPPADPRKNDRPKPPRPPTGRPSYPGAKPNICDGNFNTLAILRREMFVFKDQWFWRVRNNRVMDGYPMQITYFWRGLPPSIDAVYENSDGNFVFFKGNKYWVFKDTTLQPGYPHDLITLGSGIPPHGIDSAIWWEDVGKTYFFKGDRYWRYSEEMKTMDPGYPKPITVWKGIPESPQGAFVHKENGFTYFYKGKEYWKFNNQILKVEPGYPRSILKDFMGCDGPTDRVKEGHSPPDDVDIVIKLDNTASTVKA
T3 sequence (P14780 107-707 limits assumed): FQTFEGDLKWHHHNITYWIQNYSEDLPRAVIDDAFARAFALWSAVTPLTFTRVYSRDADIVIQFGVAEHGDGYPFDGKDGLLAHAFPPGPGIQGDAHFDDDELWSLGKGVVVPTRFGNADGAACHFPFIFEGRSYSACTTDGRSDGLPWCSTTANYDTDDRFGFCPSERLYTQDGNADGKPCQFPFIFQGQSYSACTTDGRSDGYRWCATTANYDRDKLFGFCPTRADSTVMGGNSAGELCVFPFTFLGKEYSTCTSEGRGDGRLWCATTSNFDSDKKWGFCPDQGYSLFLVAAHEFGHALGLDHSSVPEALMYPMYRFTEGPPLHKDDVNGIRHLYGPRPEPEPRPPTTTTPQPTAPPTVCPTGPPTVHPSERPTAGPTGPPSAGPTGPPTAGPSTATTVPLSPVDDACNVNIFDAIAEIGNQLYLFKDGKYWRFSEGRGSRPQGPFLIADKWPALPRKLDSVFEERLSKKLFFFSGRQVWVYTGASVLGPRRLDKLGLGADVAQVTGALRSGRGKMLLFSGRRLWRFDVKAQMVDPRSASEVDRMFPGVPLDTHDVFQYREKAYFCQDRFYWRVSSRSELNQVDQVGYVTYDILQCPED
T2 sequence (P08254 100-477): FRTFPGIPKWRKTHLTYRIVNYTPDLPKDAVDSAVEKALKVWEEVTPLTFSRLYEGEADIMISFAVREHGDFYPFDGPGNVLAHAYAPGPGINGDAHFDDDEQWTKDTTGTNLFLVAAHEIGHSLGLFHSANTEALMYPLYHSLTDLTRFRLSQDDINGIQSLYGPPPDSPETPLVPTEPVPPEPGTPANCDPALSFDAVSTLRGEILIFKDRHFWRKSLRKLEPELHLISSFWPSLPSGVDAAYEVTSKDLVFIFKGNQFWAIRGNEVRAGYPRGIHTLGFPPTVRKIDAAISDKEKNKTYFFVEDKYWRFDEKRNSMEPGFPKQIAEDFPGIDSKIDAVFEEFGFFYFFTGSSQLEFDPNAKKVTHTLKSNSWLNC

Turning to `CCCCCCCOc1ccc2cc(C(=O)CC(CCn3nnc4ccccc4c3=O)C(=O)O)oc2c1` (single isomer, unassigned; (+)) [Example 69, (+)-4-[6-(Heptyloxy)-1-benzofur-2-yl]-4-oxo-2-[2-(4-oxo-1,2,3-benzotriazin-3(4H)-yl)ethyl]butanoic acid acid], the IC50 at MMP-16 was > 40 µM; against MMP-3, 36 µM; against MMP-9, 13 µM; on MMP-7 it was > 40 µM; at MMP-13, 3.6 µM.
For the compound `CCCCCOc1ccc2cc(C(=O)CC(CCn3nnc4ccccc4c3=O)C(=O)O)sc2c1` (racemic) [Example 118, (+/−)-4-Oxo-2-[2-(4-oxo-1,2,3-benzotriazin-3(4H)-yl)ethyl]-4-[6-(pentyloxy)-1-benzothiophen-2-yl]butanoic acid], the IC50 against MMP-16 is > 40 µM; against MMP-3 it was 16 µM; on MMP-9 it was 1.2 µM; against MMP-7, 30 µM; against MMP-13 it was 1.1 µM.
Consider `NC(=O)c1cccc(COc2ccc3oc(C(=O)CC(CCn4nnc5ccccc5c4=O)C(=O)O)cc3c2)c1` (single isomer, unassigned; (+)) [Example 34, (+)-4-{5-[(3-Carbamoylbenzyl)oxy]-1-benzofur-2-yl}-4-oxo-2-[2-(4-oxo-1,2,3-benzotriazin-3(4H)-yl)ethyl]butanoic acid], for which the IC50 is > 40 µM against MMP-16; 34 µM against MMP-3; 38 µM at MMP-9; 25 µM against MMP-7; 1.6 µM against MMP-13.
Taken in the same sequence, the figures for `O=C(CC(CCn1nnc2ccccc2c1=O)C(=O)O)c1noc2cc(OCc3cccnc3)ccc12` (racemic) [Example 148, (+/−)-4-Oxo-2-[2-(4-oxo-1,2,3-benzotriazin-3(4H)-yl)ethyl]-4-[6-(pyridin-3-ylmethoxy)-1,2-benzoxazol-3-yl]butanoic acid] were > 40 µM, 9.1 µM, 0.91 µM, > 40 µM and 0.5 µM.
Consider `CCCCCOc1ccc2c(C(=O)CC(CCn3nnc4ccccc4c3=O)C(=O)O)coc2c1` (single isomer, unassigned) [Example 91, 4-Oxo-2-[2-(4-oxo-1,2,3-benzotriazin-3(4H)-yl)ethyl]-4-[6-(pentyloxy)-1-benzofur-3-yl]butanoic acid], for which the IC50 against MMP-16 was 13 µM; on MMP-3, 17 µM; on MMP-9, 0.041 µM; on MMP-7, > 40 µM; at MMP-13, 0.37 µM.
`O=C(CC(CCn1nnc2ccccc2c1=O)C(=O)O)c1cc2ccc(OCC3CC3)cc2s1` (racemic) [Example 111, (+/−)-4-[6-(Cyclopropylmethoxy)-1-benzothiophen-2-yl]-4-oxo-2-[2-(4-oxo-1,2,3-benzotriazin-3(4H)-yl)ethyl]butanoic acid]: the IC50 on MMP-16 was > 40 µM; at MMP-3, 9.7 µM; against MMP-9, 1.1 µM; against MMP-7, 4.1 µM; on MMP-13 it was 1.9 µM.
In the case of `CCCCCCCOc1ccc2c(C(=O)CC(CCn3nnc4ccccc4c3=O)C(=O)O)coc2c1` (racemic) [Example 101, (+/−)-4-[6-(Heptyloxy)-1-benzofur-3-yl]-4-oxo-2-[2-(4-oxo-1,2,3-benzotriazin-3(4H)-yl)ethyl]butanoic acid], the IC50 at MMP-16 is > 40 µM; on MMP-3 it was > 40 µM; at MMP-9, 0.42 µM; on MMP-7, > 40 µM; against MMP-13 it was 1.1 µM.
Regarding `O=C(CC(CCn1nnc2ccccc2c1=O)C(=O)O)c1onc2cc(OCc3ccccc3)ccc12` (racemic) [Example 156, (+/−)-4-[6-(Benzyloxy)-2,1-benzoxazol-3-yl]-4-oxo-2-[2-(4-oxo-1,2,3-benzotriazin-3(4H)-yl)ethyl]butanoic acid], the IC50 was 38 µM on MMP-16; 13 µM against MMP-3; 0.17 µM against MMP-9; > 40 µM on MMP-7; 2.2 µM against MMP-13.
`O=C(CC(CCn1nnc2ccccc2c1=O)C(=O)O)c1cc2cc(OCc3ccccc3)ccc2o1` (single isomer, unassigned; (+)) [Example 30, (+)-4-[5-(Benzyloxy)-1-benzofur-2-yl]-4-oxo-2-[2-(4-oxo-1,2,3-benzotriazin-3(4H)-yl)ethyl]butanoic acid]: the IC50 on MMP-16 is > 40 µM; against MMP-3, > 40 µM; against MMP-9 it was 27 µM; on MMP-7, > 40 µM; against MMP-13 it was 10 µM.
Consider `O=C(CC(CCn1nnc2ccccc2c1=O)C(=O)O)c1cc2ccc(OCCc3ccccc3)cc2o1` (racemic) [Example 73, (+/−)-4-Oxo-2-[2-(4-oxo-1,2,3-benzotriazin-3(4H)-yl)ethyl]-4-[6-(2-phenylethoxy)-1-benzofur-2-yl]butanoic acid], for which the concentration for half-maximal inhibition (IC50) is > 40 µM against MMP-16; 29 µM at MMP-3; 2.2 µM on MMP-9; > 40 µM on MMP-7; 4.7 µM on MMP-13.
`O=C(CC(CCn1nnc2ccccc2c1=O)C(=O)O)c1cc2cc(OCc3cccc(Cl)c3)ccc2o1` (racemic) [Example 50, (+/−)-4-{5-[(3-Chlorobenzyl)oxy]-1-benzofur-2-yl}-4-oxo-2-[2-(4-oxo-1,2,3-benzotriazin-3(4H)-yl)ethyl]butanoic acid]: the IC50 was > 40 µM at MMP-16; 34 µM against MMP-3; 26 µM against MMP-9; > 40 µM against MMP-7; 4 µM against MMP-13.

Source of the values: patent publication US20170121315A1, “HETEROBICYCLICALLY SUBSTITUTED 4-OXOBUTANE ACID DERIVATIVES AND USE THEREOF” (priority 2014, published 2017).
